Measurements as given in patent publication US20220071880A1, “METHODS FOR TREATING CUTANEOUS AGING” (Applied Therapeutics, Inc., priority 2019, published 2022).
Entries after “also recorded” stand apart in the source; their conditions may differ.

Assays:
Assay type in all cases: cell-based
[1] = tested on: Cultured human skin cells (keratinocytes); experiment: Cytosolic reactive oxygen species by dihydroethidium (DHE) staining in H2O2-exposed cultured keratinocytes
Excerpt: FIGS. 1A and 1B are fluorescence images of cultured human skin (keratinocytes) that were exposed to H2O2 to cause oxidative stress. The cells were analyzied for cytosolic reactive oxygen species by staining with dihydroethidium (DHE). FIG. 1A depicts the skin cell damage in the presence of H2O2 as assessed by DHE staining, and the presence of cytosolic reactive oxygen species is shown by fluorescence.
(§1) Cultured human skin cells (keratinocytes) were exposed to H2O2, which causes oxidative damage to simulate the aging process, in the presence of Compound A (at 0.18 nM concentration) or vehicle control. The cultured cells were then assessed for cytosolic reactive oxygen species via Dihydroethidium (DHE) staining (FIG. 1A and FIG. 1B) and for mitochondrial stress via Mitosox™ (a fluorgenic dye targeted to mitochondria in live cells and readily oxidized by superoxide to produce fluorescence, ThermoFisher Scientific) staining (FIG. 2A and FIG. 2B).

[2] = tested on: Cultured human skin cells (keratinocytes); experiment: Mitochondrial oxidative stress by Mitosox staining in H2O2-exposed cultured keratinocytes
Procedure: FIGS. 2A and 2B are fluorescence images of cultured human skin (keratinocytes) that were exposed to H2O2 to cause oxidative stress. The cells were analyzied for mitochondrial stress by staining with Mitosox. FIG. 2A depicts the skin cell damage in the presence of H2O2 as assessed by Mitosox staining.
as §1

[3] = tested on: cultured human keritinocytes; experiment: Senescence-associated beta-galactosidase (SA-βgal) expression in H2O2-exposed cultured keratinocytes, cytochemical approach; conditions: human keratinocytes exposed to H2O2; Compound A at 0.18 nM vs vehicle control
Procedure: Senescence-associated beta-galactosidase (SA-βgal) is a well-known biomarker of senescent cells in culture and in vivo. Debacq-Chainiaux et al., Nature Protocols 4, 1798-1806 (2009). In additional studies the cultured human keritinocytes that were exposed to H2O2 in the presence of Compound A (at 0.18 nM concentration) or vehicle control were analyzed for expression of SA-βgal using a cytochemical approach.

[4] = same cultured human keratinocyte system, concentration not given
[5] = human keratinocytes exposed to H2O2, Compound A at 0.18 nM vs vehicle control

| H2O2-induced SA-βgal expression [3] | SMILES | H2O2-induced cytosolic reactive oxygen species formation [1, 4] | H2O2-induced mitochondrial oxidative stress [2, 4] | H2O2-induced cytosolic reactive oxygen species formation (DHE fluorescence) [1, 5] | H2O2-induced mitochondrial oxidative stress (Mitosox fluorescence) [2, 5] |
| --- | --- | --- | --- | --- | --- |
|  | O=C(O)Cc1nn(Cc2nc3cc(C(F)(F)F)ccc3s2)c(=O)c2cscc12 [Compound B] | inhibited H2O2-induced cytosolic reactive oxygen species formation | inhibited H2O2-induced cytosolic reactive oxygen species formation and mitochondrial oxidative stress |  |  |
| inhibited H2O2-induced SA-βgal | O=C(O)Cc1nn(Cc2nc3cc(C(F)(F)F)ccc3s2)c(=O)c2nccnc12 [Compound A] |  |  | attenuated DHE fluorescence; also recorded: attenuated H2O2-induced cytosolic reactive oxygen species formation | reduced Mitisox fluorescence; also recorded: reduced mitochondrial oxidative stress |
